According to article PMC10807816, “Molecular mechanisms and evolutionary robustness of a color switch in proteorhodopsins” (Science Advances, 2024):

Target: T1, GPR (green proteorhodopsin) (uncultured marine gamma proteobacterium EBAC31A08, UniProt Q9F7P4, L105Q)
T1 construct: pET27b(+) NdeI/XhoI, C-terminal HSV tag and His6 tag kept; E. coli C43; Ni-NTA, DDM, DMPC/DMPA liposomes
Assay: solid-state NMR (DNP, CSA, 2D […]/1H/[…]) and UV-Vis
Type: binding
Details: covalent; protonated Schiff base to Lys231; pH 9.0; labelled compound; called BPR

T1 sequence (Q9F7P4 18-249 L105Q): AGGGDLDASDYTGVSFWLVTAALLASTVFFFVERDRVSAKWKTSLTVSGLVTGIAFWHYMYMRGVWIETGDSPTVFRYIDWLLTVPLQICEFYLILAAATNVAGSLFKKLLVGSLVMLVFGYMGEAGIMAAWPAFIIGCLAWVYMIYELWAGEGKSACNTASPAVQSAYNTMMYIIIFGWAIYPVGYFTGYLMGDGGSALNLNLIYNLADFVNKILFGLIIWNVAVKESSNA

For CC1=C(/C=C/C(C)=C/C=C/C(C)=C/C=O)C(C)(C)CCC1 [all-trans retinal], the “solid-state NMR (DNP, CSA, 2D 13C/1H/15N) and UV-Vis” value was “Notable chemical shift changes between GPR and BPR have been observed”.
